The record followed here is patent publication US8652463B1, “Dietary supplement to reduce the occurrence of migraines and treat their symptoms” (priority 2011, dated 2014).

Series [1] concerns acute migraine. Description: Patient case reports: acute (rescue/abortive) migraine therapy. The class given is in vivo, human. Particulars: for success for acute migraine: historically, before the regimen.
In series [2] the test system is migraine headaches. Conditions: for effect of preventive on migraine frequency: Patient two, before the regimen, ELAVIL 75 mg orally at bedtime, prednisone brief rounds.
Setting [3] is: Patient three, history before the regimen.

With `O=C(c1ccccc1)c1ccc2n1CCC2C(=O)O` (stereo not shown) [TORADOL], the “response for acute migraine rescue” value in series [1] (setting [3]) is “poor response”. Moreover, the “response to abortive therapy” value in series [1] (human, in vivo, po) is reported as “good response”.

As to `CN(C)CCc1c[nH]c2ccc(Cn3cncn3)cc12` [MAXALT], the “response for acute migraine rescue” value in series [1] (setting [3]) is “poor response”. On to `C[C@]12C=CC(=O)C=C1CC[C@@H]1[C@@H]2C(=O)C[C@@]2(C)[C@H]1CC[C@]2(O)C(=O)CO` [prednisone], for which, in series [2], the “effect of preventive on migraine frequency” value (shortened to “effect of preventive”) is listed as “short-lived migraine reduction”. With `CC1(C)O[C@@H]2[C@@H](CO[C@@]3(COS(N)(=O)=O)OC(C)(C)O[C@@H]23)O1` [TOPAMAX], in series [2] (Patient one), the “migraine reduction and severity with preventive” value was “poor migraine reduction and severity”. Moreover, the “effect of preventive” value in series [2] is on record as “did not reduce migraine frequency”. In series [2] (human, in vivo), the “side effects of migraine prevention” value is listed as “cognitive dysfunction”, the “side effects of migraine preventive” value is given as “alopecia” and the “tolerance of migraine preventive” value is on record as “poor tolerance”. Take `CC(CN1c2ccccc2Sc2ccccc21)N(C)C` (stereo not shown) [phenegran]: the “success for acute migraine” value in series [1] (Patient one) is reported as “moderate success”. In the case of `CNS(=O)(=O)Cc1ccc2[nH]cc(CCN(C)C)c2c1` [IMITREX], in series [1] (setting [3]), the “course of response for acute migraine rescue” value is on record as “worked well initially, but became ineffective” and the “response for acute migraine rescue” value was “poor response”. For the same compound, in series [1] (Patient two, 100 mg orally, prior to breast cancer diagnosis, two to three migraines per month), the “response of migraines to acute therapy” value was “responded well”. For the same compound, the “response to rescue medication” value in series [1] (Patient two, while using the regimen and ELAVIL) is listed as “more responsive to a single dose”. `CC(C)C[C@H](CN)CC(=O)O` [LYRICA]: the “side effects of migraine preventive” value in series [2] (human, in vivo) is “fluid retention and confusion”. As for `CN(C)CCC=C1c2ccccc2CCc2ccccc21` [ELAVIL], the “effect of preventive” value in series [2] is reported as “did not reduce migraine frequency”. Also, the “side effects of migraine preventive” value in series [2] (human, in vivo) is on record as “weight gain”.

Take `CN[C@@H]1CCc2[nH]c3ccc(C(N)=O)cc3c2C1` [FROVA]: in series [1] (Patient one), the “success for acute migraine” value is listed as “moderate success”. Moreover, the “success as rescue drug” value in series [1] (Patient one, while using the regimen) was “with success”. In the case of `CC(C)(C#N)c1cc(Cn2cncn2)cc(C(C)(C)C#N)c1` [ARMIDEX], the “effect on migraines (adverse)” value in series [2] (human, in vivo) is “more frequent, disabling, and less responsive”. With `Clc1ccc2nsnc2c1NC1=NCCN1` [ZANAFLEX], the “side effects of migraine prevention” value in series [2] (human, in vivo) is recorded as “cognitive dysfunction”.

Regarding botulinum toxin [BOTOX], the “migraine remission / frequency” value in series [2] (human, in vivo) was “complete remission of migraines to once per month”.
